In a melting point compilation (Tetko et al.; mined from patent text by program, amines drawn as free bases though some values may be those of a salt):

melting point [°C]	SMILES
196 to 198	CCOC(=O)C1(n2cc(Br)cc2C(=O)C(Cl)(Cl)Cl)CC(=O)NC1=O (centres undefined)
97	COC(=O)CCCc1cc2nc(Cl)ccc2n1S(=O)(=O)c1cccc(C(F)(F)F)c1
110 to 112	CC(Oc1c(Br)cc(Br)cc1Br)c1cc(Br)c(Br)cc1Br (centres undefined)
105 to 107	COc1ccc(S(=O)(=O)Nc2cccc3c2Nc2ccc(C#N)cc2CN3)cc1
71 to 72	COc1cc(/C=C/CO)ccc1OCc1csc(-c2ccccc2)n1
84 to 85	COC(=O)[C@H](/C=C/[C@H](Cc1ccccc1)NC(=O)OC(C)(C)C)Cc1ccccc1
72 to 74	CC(C)N1CCC(CNc2ccc(Cl)cc2C(=O)Nc2ccc(F)cn2)CC1
164 to 165	CC(C)(C)c1cc(C(=O)COc2ccc(C(=O)O)c(O)c2)cc(C(C)(C)C)c1O
162	CC(=O)CCCCCC(=O)N[C@@H](C)C(=O)N[C@H](CCC(=O)OCc1ccccc1)C(N)=O
189	Cc1c(Cl)cccc1S(=O)(=O)Nc1nc(CC(=O)Oc2ccccc2)cs1
220 to 221	c1ccc(CCN2CCc3[nH]c4ccc5scc(-c6ccccc6)c5c4c3C2)cc1
205 to 206	COC(=O)c1c(-c2cc(OC)c(OC)c(OC)c2)c2cc(OC)c(OCc3cccs3)cc2c(=O)n1-c1ccc(N)cc1
88	CN(CC(O)c1ccc(Cl)c(Cl)c1)C(=O)OC(C)(C)C (centres undefined)
184 to 186	C=C(C)C(=O)Oc1ccc2c(c1)C(=O)c1ccccc1C2=O
99 to 100	CCc1nc2c(Cl)ncnc2n1C(C1CC1)C1CC1
192 to 194	CC(=O)Nc1ccc(-n2c(-c3ccccc3)cc3c2CCCC3)cc1C(=O)O
125 to 126	CCC(CC)c1nn(-c2ccc(C(F)(F)F)cn2)cc1CCCOc1c(C)cccc1CC(=O)O
222 to 224	O=S(=O)(NCc1ccccc1)c1ccc(N(OCC2CCCCC2)c2ncc3[nH]cnc3n2)cc1
137 to 138	O=C(N[C@H](Cc1cccc(OC(F)(F)C(F)F)c1)[C@@H](O)c1csc(-c2ccccc2)n1)c1cccc2c1C=CCCC2 (racemic)
154	NCc1ccc2c(c1)nc(CN1C(=O)N(C3CC3)Cc3ccccc31)n2CCCC(F)(F)F
228	CCCC1=C([N+](=O)[O-])C(c2ccccc2Cl)c2c[nH]nc2N1 (centres undefined)

melting point [°C]	SMILES
160	CC(C)(C)NCC(O)COc1ccccc1C(=O)Nc1cccc2c1CC(=O)N2 (centres undefined)
165 to 180	Cc1ccc(C(=O)OC(C)c2nc3c(c(=O)n(C)c(=O)n3C)n2C)cn1 (centres undefined)
164 to 166	COc1ccc(S(=O)(=O)n2ccc3cccc(-c4ccc(C#N)cc4)c32)cc1
150 to 154	CN(C)Nc1c([N+](=O)[O-])cc(C(F)(F)F)c(N)c1[N+](=O)[O-]
102 to 104	Cc1cccc2c(Cl)c(CCCl)nnc12
92 to 93	CCN1c2ncc(CSc3ccccc3)cc2C(=O)N(C)c2ccc(Cl)nc21
190 to 192	COc1cccc(Nc2n[nH]c3ncn(-c4cccc(Cl)c4)c(=N)c23)c1
155 to 157	N=C(NNC=O)c1ccc(-c2ccc(Cl)cc2)o1
176 to 178	COc1cc(C(C)C)c(Oc2cnc(NC(=O)CNC3CCCC3)nc2N)cc1I
200 to 201	COC(=O)Nc1cc(-c2nc(-c3ccco3)no2)ccc1Cl
243 to 245	COc1cc(Nc2c(C#N)cnc3cc(I)ccc23)c(Cl)cc1Cl
151 to 152	Cc1cccc(-c2ccc(C(=O)Nc3ccc4cc(CN5CCCC5)cnc4c3C)cc2)c1
107 to 108	CC(C=O)n1nnc2ccc(Oc3cc(F)c(C(F)(F)F)c(Cl)c3)cc21 (centres undefined)
165 to 167	O=C(O)C(Cc1ccccc1)Oc1ccc(-c2ccc(-c3c(Cc4ccccc4)sc4ccccc34)cc2)cc1 (centres undefined)
217 to 218	CCN1C(=O)SC(=Cc2ccc([N+](=O)[O-])cc2)C1=O
234 to 236	C[C@@H]1CN(c2c(F)c(N)c3c(=O)c(C(=O)O)cn(C4CC4)c3c2F)C[C@H]1N (relative stereo)
75 to 77	COc1c(C=O)cc(Cl)c(Cl)c1OC
175 to 176	COc1ccc(N2CCN(c3ccc(-n4cnn([C@H](C)[C@@]5(c6ccc(F)cc6F)CO5)c4=O)cc3)CC2)cc1
110 to 111	COc1ccc(-c2cc(=O)n(CCCOc3ccccc3)nc2-c2ccc(OC)cc2)cc1
106 to 107	C=CCOc1ccc(COc2ccc(CC(=O)O)cc2Cl)cc1
52 to 54	COC(=O)Cc1cccc(C(=O)c2ccccc2)c1N

melting point [°C]	SMILES
220 to 221	COc1ccc(Cc2c(-c3ccc(OC(F)F)c(OC4CC4)c3)[nH]c3cn[nH]c(=O)c23)cn1
61 to 64	CC1(O)CC(=O)OC(CCc2ccc(Cl)cc2)C1 (centres undefined)
174 to 176	CCn1nnc2cc3c(=O)n(C(C)Cn4ncnn4)nnc3cc2c1=O (centres undefined)
103 to 105	COC(=O)c1cc2ccc(S)cc2nc1OC
128 to 129	COc1ccc(C2=NN(CCO)C(=O)[C@H]3CCCC[C@@H]23)cc1OC (relative stereo)
> 300	O=C1C(=O)c2ccc(Cl)cc2C2=C1SCC1(CCNCC1)O2
215 to 216	CC(=O)Nc1cccc(C#Cc2c(F)c(F)nc(F)c2F)c1
170 to 181	C=CCONc1nc(NC=O)nc(Cl)c1NC=O
150 to 153	FC(F)C(F)(F)Oc1cccc(Nc2nccc(-c3ccnc(Cl)c3)n2)c1
154 to 155	O=C(NCCn1cc(C(=O)OCc2ccccc2)ccc1=O)c1cccnc1
92 to 93	C#CCOc1cc(Cl)nc(Nc2ccccc2)n1
92 to 94	COc1c(C)c(-c2ccccc2)nn1N
160	CCCc1nnc(-c2ccc(N(C)C)cc2)n1-c1ccc(OC)cc1
186 to 187	CC(C)(C)OC(=O)N[C@H](CC(=O)OCc1ccccc1)C(=O)N[C@H](CO)C(C)(C)C
132 to 137	CCOC(=O)Oc1ccc([N+](=O)[O-])c(C(=O)O)c1
134 to 136	Cn1cc(-c2cc(-c3c[nH]nc3-c3ccccn3)ccc2F)cn1
174 to 176	Cc1cc(CCc2ccc(-c3ccc(C(F)(F)F)cc3)cc2)ccc1OCC(=O)O
139 to 140	COC(=O)COc1cccc2c(CNC(C)=O)coc12
128	CC(=O)ON=C(N)c1cccc(OC(C)=O)c1
99.5	C#CCCCn1ncc2c(N)c(C(=O)OCC=C)c(C)nc21
181 to 182	CC(C)Sc1cc([Si](C)(C)C)oc1C(=O)Nc1nnn[nH]1

SMILES	melting point [°C]
CCCN1CC(c2cccc(O)c2)CC1C (centres undefined)	123 to 124
O=C1NC(=O)C(Cc2ccccc2)C(=O)N1	207 to 209
OC1(CN2c3ccccc3Sc3ccccc32)CN2CCC1CC2 (centres undefined)	127 to 130
COc1cc(C2C3=C(COC3=O)N(c3cc(OC)c(OC)c(OC)c3)c3cc4c(cc32)OCO4)cc(OC)c1OC (centres undefined)	> 260
CC(Cl)(Cl)C(=O)NC(=O)C(N)=O	110
CC(=O)Nc1ccc2c3c(cccc13)S(=O)(=O)N2CCCN1CC=C(c2ccccc2)CC1	178
